Laboratory results reported in patent publication US9555045B2, “Use of prostaglandins F2alpha and analogues for the healing of corneal and conjunctival lesions” (SANTEN SAS, priority 2009, dated 2017).

System: Sprague-Dawley rats
Conditions: rat
Protocol: Brief description of the protocol: 16 male Sprague-Dawley rats weighting 100 to 125 g were randomly assigned to 4 groups (4 rats per group (Gp)): Gp1, Phosphate buffer solution (PBS); Gp2, 0.02% benzalkonium chloride (BAK); Gp3, Xalatan®; Gp4, Latanoprost Emulsion. Following general and local anesthesia with ketamine/xylazine and topical Oxybucaïne, respectively, the upper part of the right eye cornea of each rat was scraped with a surgical scalpel following an application of 50 μl of 50% ethanol solution. The upper corneal and limbal epithelia were removed (at day D0). One drop of Tobrex was instilled immediately after the scraping. 2 and 5 hours post scraping one drop of the different test articles were applied onto the cornea of the right eye. These latter instillations were repeated every day for 4 days, and corneal evaluation with an in vivo confocal microscope (IVCM-HRT) was performed on day 4 after the last instillation. At the end of the experimental procedure (the total duration of the treatment is 5 days; from day D0 to D4), the animals were sacrificed and the eyes harvested to characterize the histological organisation of the treated cornea.

benzalkonium chloride [0.02% BAK solution]
IVCM (in vivo confocal microscopy) of superficial epithelium: scar tissue / hypereflectivity: corneal edema and tissue disorganisation
Hematoxylin-eosin staining of treated cornea (epithelium thinning, edema, inflammatory infiltrates) (in vivo): edemas and inflammatory infiltrates are particularly obvious
